Data: patent publication US10994015B2, “EGFR proteolysis targeting chimeric molecules and associated methods of use” (Arvinas Operations, Inc., priority 2016, dated 2021)

Legend:
[1] = molecular target: EGFR-wt (MDA-MB-231 or MCF7 or A549 or OVCAR8) (Homo sapiens (Human), UniProt P00533); experiment: EGFR protein degradation assay (Western blot); assay type: cell-based; settings: 72 hours, 300 nM to 10 nM
In short: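 Cells carrying the relevant EGFR form were plated at 300,000 per well in 6-well plates and left overnight to attach. For harvest, cells were rinsed once in ice-cold PBS and lysed in 400 μl lysis buffer containing protease inhibitors. Lysates were cleared at 10 000 rpm for 10 minutes and their protein content measured by BCA. Then 10 μg per sample was separated by SDS/PAGE at 165V for 2 hours, and EGFR was detected by ECL on a Chemidoc.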

EGFR Exon 20 ASV (HeLa*) = EGFR Exon 20 ASV (HeLa*) (Homo sapiens (Human), UniProt P00533, DUP767-769); experiment: EGFR protein degradation assay (Western blot); assay type: cell-based; settings: 72 hours, 300 nM to 10 nM
EGFR WT = EGFR WT (Homo sapiens (Human), UniProt P00533); experiment: TR-FRET assay for ERBB kinases; assay type: biochemical; settings: geometric mean if measured more than once
In short: (§1)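 Read-out is TR-FRET between a terbium anti-phosphotyrosine (pY20) antibody and phosphorylated fluorescein-labelled poly-GluTyr, excited at 340 nm with donor 490 nm and acceptor 520 nm emission. Phosphorylation ran 10 min at room temperature after a 10 min compound–enzyme pre-incubation. The substrate mix contained 3 mM ATP.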

EGFR L858R/T790M/C797S = EGFR L858R/T790M/C797S (Homo sapiens (Human), UniProt P00533, C797S/L858R/T790M); experiment: TR-FRET assay for ERBB kinases; assay type: biochemical; settings: geometric mean if measured more than once
In short: as §1

EGFR L858R/T790M = EGFR L858R/T790M (Homo sapiens (Human), UniProt P00533, L858R/T790M); experiment: TR-FRET assay for ERBB kinases; assay type: biochemical; settings: geometric mean if measured more than once
In short: as §1

EGFR Exon20NPG = EGFR Exon20NPG (Homo sapiens (Human), UniProt P00533, INS770NPG); experiment: TR-FRET assay for ERBB kinases; assay type: biochemical; settings: geometric mean if measured more than once
In short: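 Compounds pre-incubated 10 min with kinase in HEPES pH 7.5 buffer (MgCl2, DTT, Pluronic), then reaction started with substrate mix (3 mM ATP, 30 µM fluorescein-poly-GluTyr, stock levels) for 10 min at room temperature. EDTA-quenched, detected by Tb-pY20 antibody TR-FRET (520/490 nm emission).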

[2] = molecular target: EGFR L858R/T790M/C797S triple mutant (H520*) (Homo sapiens (Human), UniProt P00533, C797S/L858R/T790M); experiment: EGFR protein degradation assay (Western blot); assay type: cell-based; settings: 72 hours, 300 nM to 10 nM
In short: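 EGFR loss in the triple-mutant line measured by immunoblot: clarified lysates normalised by BCA, run on 4-12% Bis-Tris gels, blotted to PVDF, probed with HRP anti-rabbit secondary. Before lysis, cells were dosed from 1, 0.3, 0.1, 0.03 and 0.01 mM DMSO stocks (not final concentrations) after overnight culture at 37° C.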

[3] = molecular target: EGFR L858R/T790M double mutant (H1975) (Homo sapiens (Human), UniProt P00533, L858R/T790M); experiment: EGFR protein degradation assay (Western blot); assay type: cell-based; settings: 72 hours, 300 nM to 10 nM
In short: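 Cells carrying the relevant EGFR form were plated at 300,000 cells per well in 6-well plates and left to attach overnight. After washing in ice-cold PBS, cells were lysed in 400 μl lysis buffer with protease inhibitors, scraped, and clarified at 10 000 rpm for 10 minutes. EGFR levels were then assessed by Western blot with tubulin as loading control.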

EGFR L858R/T790M/C797S triple mutant (H520*), sequence (P00533 25-1210 T790M/C797S/L858R): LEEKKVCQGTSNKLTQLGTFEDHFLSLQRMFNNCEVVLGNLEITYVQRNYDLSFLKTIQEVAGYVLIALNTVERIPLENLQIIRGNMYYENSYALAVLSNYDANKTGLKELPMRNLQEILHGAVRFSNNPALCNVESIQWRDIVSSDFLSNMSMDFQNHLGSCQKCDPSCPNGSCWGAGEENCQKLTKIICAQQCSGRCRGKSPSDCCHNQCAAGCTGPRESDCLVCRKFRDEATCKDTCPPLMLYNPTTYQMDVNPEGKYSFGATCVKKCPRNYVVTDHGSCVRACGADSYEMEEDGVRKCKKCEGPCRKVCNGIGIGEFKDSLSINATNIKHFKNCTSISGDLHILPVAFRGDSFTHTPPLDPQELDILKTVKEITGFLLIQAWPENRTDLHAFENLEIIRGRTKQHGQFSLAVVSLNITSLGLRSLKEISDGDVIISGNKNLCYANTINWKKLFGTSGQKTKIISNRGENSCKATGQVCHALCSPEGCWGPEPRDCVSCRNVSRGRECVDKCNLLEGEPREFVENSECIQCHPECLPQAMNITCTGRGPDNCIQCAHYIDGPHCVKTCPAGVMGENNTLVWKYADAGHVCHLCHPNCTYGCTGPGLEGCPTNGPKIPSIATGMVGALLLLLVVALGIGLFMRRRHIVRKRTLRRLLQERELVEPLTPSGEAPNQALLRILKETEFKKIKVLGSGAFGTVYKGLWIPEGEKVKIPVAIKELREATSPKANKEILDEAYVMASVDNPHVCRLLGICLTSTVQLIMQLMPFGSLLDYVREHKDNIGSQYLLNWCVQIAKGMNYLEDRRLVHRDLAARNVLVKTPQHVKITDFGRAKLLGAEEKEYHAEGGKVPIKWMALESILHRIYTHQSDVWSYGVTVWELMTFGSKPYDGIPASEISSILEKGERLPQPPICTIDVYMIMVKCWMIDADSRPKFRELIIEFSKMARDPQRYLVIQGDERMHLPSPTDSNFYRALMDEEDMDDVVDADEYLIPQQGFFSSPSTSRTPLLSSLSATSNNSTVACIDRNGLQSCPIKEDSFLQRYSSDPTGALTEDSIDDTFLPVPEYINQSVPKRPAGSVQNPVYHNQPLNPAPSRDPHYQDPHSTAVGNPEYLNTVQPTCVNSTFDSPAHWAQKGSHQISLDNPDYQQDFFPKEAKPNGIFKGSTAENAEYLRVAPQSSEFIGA
EGFR L858R/T790M/C797S, sequence (P00533 25-1210 T790M/C797S/L858R): as above
EGFR Exon 20 ASV (HeLa*), sequence (P00533 other isoform, or with tags, fused parts or gaps dup 767-769): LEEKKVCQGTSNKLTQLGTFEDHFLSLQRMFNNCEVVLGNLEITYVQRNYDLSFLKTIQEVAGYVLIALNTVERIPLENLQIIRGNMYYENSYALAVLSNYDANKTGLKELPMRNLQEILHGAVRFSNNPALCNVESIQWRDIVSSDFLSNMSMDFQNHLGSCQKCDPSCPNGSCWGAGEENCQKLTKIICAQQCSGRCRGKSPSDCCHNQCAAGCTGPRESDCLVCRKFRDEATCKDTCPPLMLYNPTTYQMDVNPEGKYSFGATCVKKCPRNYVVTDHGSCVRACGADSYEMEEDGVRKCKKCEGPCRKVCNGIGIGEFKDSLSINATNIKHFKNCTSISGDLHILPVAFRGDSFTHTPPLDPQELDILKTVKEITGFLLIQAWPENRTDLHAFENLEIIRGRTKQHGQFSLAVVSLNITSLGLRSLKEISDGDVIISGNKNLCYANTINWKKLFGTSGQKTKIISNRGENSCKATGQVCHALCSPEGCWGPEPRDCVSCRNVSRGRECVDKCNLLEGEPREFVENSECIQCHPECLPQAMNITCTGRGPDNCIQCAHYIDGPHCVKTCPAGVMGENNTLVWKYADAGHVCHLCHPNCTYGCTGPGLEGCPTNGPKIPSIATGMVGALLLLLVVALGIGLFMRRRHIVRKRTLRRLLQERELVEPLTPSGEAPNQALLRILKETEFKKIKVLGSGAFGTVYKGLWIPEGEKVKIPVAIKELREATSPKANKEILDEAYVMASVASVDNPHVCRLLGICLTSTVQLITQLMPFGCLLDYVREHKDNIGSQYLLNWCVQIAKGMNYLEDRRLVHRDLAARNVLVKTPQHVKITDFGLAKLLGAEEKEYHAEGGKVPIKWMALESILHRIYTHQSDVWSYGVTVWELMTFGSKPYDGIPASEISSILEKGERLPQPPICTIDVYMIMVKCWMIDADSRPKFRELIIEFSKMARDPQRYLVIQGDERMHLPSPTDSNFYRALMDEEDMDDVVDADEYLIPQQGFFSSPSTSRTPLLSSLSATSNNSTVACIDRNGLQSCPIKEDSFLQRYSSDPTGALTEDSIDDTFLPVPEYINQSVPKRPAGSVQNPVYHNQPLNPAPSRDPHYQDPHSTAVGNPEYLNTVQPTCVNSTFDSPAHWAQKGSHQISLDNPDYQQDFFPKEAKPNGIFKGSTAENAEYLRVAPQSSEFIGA
EGFR Exon20NPG, sequence (P00533 other isoform, or with tags, fused parts or gaps del 1-694/ins NPG behind 770 limits assumed): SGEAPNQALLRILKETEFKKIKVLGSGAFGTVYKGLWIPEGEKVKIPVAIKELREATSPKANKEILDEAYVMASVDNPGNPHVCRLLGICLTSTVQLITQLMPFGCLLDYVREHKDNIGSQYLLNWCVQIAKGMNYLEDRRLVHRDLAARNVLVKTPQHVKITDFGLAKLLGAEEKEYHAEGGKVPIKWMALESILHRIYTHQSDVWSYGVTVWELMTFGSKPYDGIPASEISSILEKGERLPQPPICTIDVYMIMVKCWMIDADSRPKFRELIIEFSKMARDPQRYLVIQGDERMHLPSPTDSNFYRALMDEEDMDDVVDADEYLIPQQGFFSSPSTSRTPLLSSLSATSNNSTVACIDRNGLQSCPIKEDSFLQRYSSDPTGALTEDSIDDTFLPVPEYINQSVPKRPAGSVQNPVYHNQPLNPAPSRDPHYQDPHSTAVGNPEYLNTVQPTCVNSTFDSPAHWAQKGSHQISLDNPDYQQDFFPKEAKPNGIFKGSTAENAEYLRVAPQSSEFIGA

Row | SMILES | EGFR protein remaining, EGFR-wt [1] | EGFR protein remaining, EGFR Exon 20 ASV (EGFR Exon 20 ASV (HeLa*)) | IC50 (EGFR WT) [nM] | IC50 (EGFR L858R/T790M/C797S) [nM] | IC50 (EGFR L858R/T790M) [nM] | IC50 (EGFR Exon20NPG) [µM] | EGFR protein remaining, EGFR L858R/T790M/C797S triple mutant [2] | EGFR protein remaining, EGFR L858R/T790M double mutant [3]
1 | O=C1CCC(N2C(=O)c3ccc(OCCOCCOCCOCCOCCOCCN4CCN(Cc5ccc(C6Cc7c(NCc8ccccc8Cl)ncnc7N6)cc5)CC4)cc3C2=O)C(=O)N1 (stereo not drawn) [compound 105] | C (>80% EGFR protein remaining after 72 hours of incubation with the test compound at a concentration of 300 nM) | C (>80% EGFR protein remaining after 72 hours of incubation with the test compound at a concentration of 300 nM) | 970 | 24000 | > 30000 | 0.82 |  | 
2 | Cc1ncsc1-c1ccc(CNC(=O)[C@H]2C[C@H](O)CN2C(=O)[C@@H](NC(=O)COCCOCCOc2ccc(-c3ccc4ncnc(Nc5ccc(OCc6cccc(F)c6)c(Cl)c5)c4c3)cc2)C(C)(C)C)cc1 [Example 98, (2R,4S)-1-((S)-2-(2-(2-(2-(4-(4-((3-Chloro-4-((3-fluorobenzyl)oxy)phenyl)amino)quinazolin-6-yl)phenoxy)ethoxy)ethoxy)acetamido)-3,3-dimethylbutanoyl)-4-hydroxy-N-(4-(4-methylthiazol-5-yl)benzyl)pyrrolidine-2-carboxamide] | C (>80% EGFR protein remaining after 72 hours of incubation with the test compound at a concentration of 300 nM) |  |  |  |  |  |  | 
3 | O=C1CCC(N2C(=O)c3ccc(OCCOCCN4CCN(Cc5ccc(-c6cc7c(NCc8ccccc8Cl)ncnc7[nH]6)cc5)CC4)cc3C2=O)C(=O)N1 (stereo not drawn) [Example 102, 5-(2-(2-(4-(4-(4-((2-chlorobenzyl)amino)-7H-pyrrolo[2,3-d]pyrimidin-6-yl)benzyl)piperazin-1-yl)ethoxy)ethoxy)-2-(2,6-dioxopiperidin-3-yl)isoindoline-1,3-dione] | C (>80% EGFR protein remaining after 72 hours of incubation with the test compound at a concentration of 300 nM) | C (>80% EGFR protein remaining after 72 hours of incubation with the test compound at a concentration of 300 nM) |  |  |  |  |  | 
4 | COc1cc2c(Oc3ccc(N(C(=O)C4(C(N)=O)CC4)c4ccc(F)cc4)cc3F)ccnc2cc1OCCCOCCCOCCC(=O)N[C@H](C(=O)N1C[C@@H](O)C[C@H]1C(=O)NCc1ccc(-c2scnc2C)cc1)C(C)(C)C [Example 351, N-(3-Fluoro-4-((7-(3-(3-(3-(((S)-1-((2S,4S)-4-hydroxy-2-((4-(4-methylthiazol-5-yl)benzyl)carbamoyl)-pyrrolidin-1-yl)-3,3-dimethyl-1-oxobutan-2-yl)amino)-3-oxopropoxy)propoxy)propoxy)-6-methoxyquinolin-4-yl)oxy)phenyl)-N-(4-fluorophenyl)cyclopropane-1,1-dicarboxamide] | C (>80% EGFR protein remaining after 72 hours of incubation with the test compound at a concentration of 300 nM) |  |  |  |  |  |  | 
5 | Cc1ncsc1-c1ccc(CNC(=O)[C@@H]2C[C@@H](O)CN2C(=O)[C@@H](NC(=O)COCCOCCOCCOc2ccc(-c3ccc4ncnc(Nc5ccc(OCc6cccc(F)c6)c(Cl)c5)c4c3)cc2)C(C)(C)C)cc1 [Example 99, (2S,4R)-1-((S)-2-(tert-Butyl)-14-(4-(4-((3-chloro-4-((3-fluorobenzyl)oxy)phenyl)amino)quinazolin-6-yl)phenoxy)-4-oxo-6,9,12-trioxa-3-azatetradecanoyl)-4-hydroxy-N-(4-(4-methylthiazol-5-yl)benzyl)pyrrolidine-2-carboxamide] | A (≤50% EGFR protein remaining after 72 hours of incubation with the test compound at a concentration between 300 nM and 10 nM) |  |  |  |  |  |  | 
6 | Cc1ncsc1-c1ccc(CNC(=O)[C@@H]2C[C@H](O)CN2C(=O)[C@@H](NC(=O)COCCOCCOCCOc2ccc(-c3ccc4ncnc(Nc5ccc(OCc6cccc(F)c6)c(Cl)c5)c4c3)cc2)C(C)(C)C)cc1 [Example 100, (2S,4S)-1-((S)-2-(tert-Butyl)-14-(4-(4-((3-chloro-4-((3-fluorobenzyl)oxy)phenyl)amino)quinazolin-6-yl)phenoxy)-4-oxo-6,9,12-trioxa-3-azatetradecanoyl)-4-hydroxy-N-(4-(4-methylthiazol-5-yl)benzyl)pyrrolidine-2-carboxamide] | C (>80% EGFR protein remaining after 72 hours of incubation with the test compound at a concentration of 300 nM) |  |  |  |  |  |  | 
7 | Cc1ncsc1-c1ccc(CNC(=O)[C@@H]2C[C@@H](O)CN2C(=O)[C@@H](NC(=O)COCCOCCOCCOCCOCc2ccc(-c3ccc4ncnc(Nc5ccc(OCc6cccc(F)c6)c(Cl)c5)c4c3)o2)C(C)(C)C)cc1 [Example 320, (2S,4R)-1-((S)-18-(tert-butyl)-1-(5-(4-((3-chloro-4-((3-fluorobenzyl)oxy)phenyl)amino)quinazolin-6-yl)furan-2-yl)-16-oxo-2,5,8,11,14-pentaoxa-17-azanonadecan-19-oyl)-4-hydroxy-N-(4-(4-methylthiazol-5-yl)benzyl)pyrrolidine-2-carboxamide] | A (≤50% EGFR protein remaining after 72 hours of incubation with the test compound at a concentration between 300 nM and 10 nM) |  |  |  |  |  |  | 
8 | Cc1ncsc1-c1ccc(CNC(=O)[C@@H]2C[C@@H](O)CN2C(=O)[C@@H](NC(=O)CO[C@H]2C[C@H](Oc3ccc(N4CCN(CCOCc5nc6cnc(Nc7ccnc(-c8cnn(S(=O)(=O)C9CC9)c8)n7)cc6n5C(C)C)CC4)cc3)C2)C(C)(C)C)cc1 [compound 304] | C (>80% EGFR protein remaining after 72 hours of incubation with the test compound at a concentration of 300 nM) |  | > 30000 | 17 | 92 |  | A (≤50% EGFR protein remaining after 72 hours of incubation with the test compound at a concentration between 300 nM and 10 nM) | 
9 | Cc1ncsc1-c1ccc(CNC(=O)[C@@H]2C[C@@H](O)CN2C(=O)[C@@H](NC(=O)COCCOCCOCCOc2ccc(-c3cc4c(NCc5ccccc5Cl)ncnc4[nH]3)cc2)C(C)(C)C)cc1 [Example 14, (2S,4R)-1-((S)-2-(tert-butyl)-14-(4-(4-((2-chlorobenzyl)amino)-7H-pyrrolo[2,3-d]pyrimidin-6-yl)phenoxy)-4-oxo-6,9,12-trioxa-3-azatetradecanoyl)-4-hydroxy-N-(4-(4-methylthiazol-5-yl)benzyl)pyrrolidine-2-carboxamide] | C (>80% EGFR protein remaining after 72 hours of incubation with the test compound at a concentration of 300 nM) | C (>80% EGFR protein remaining after 72 hours of incubation with the test compound at a concentration of 300 nM) |  |  |  |  |  | 
10 | Cc1ncsc1-c1ccc([C@H](C)NC(=O)[C@H]2C[C@H](O)CN2C(=O)[C@@H](NC(=O)COCCOCCOCCOCCOCCOCC#Cc2cccc3c2C(=O)N([C@@H](C(=O)Nc2nccs2)c2cc(F)ccc2O)C3)C(C)(C)C)cc1 [compound 275] | C (>80% EGFR protein remaining after 72 hours of incubation with the test compound at a concentration of 300 nM) |  | 660 | 69 | 880 | 9.1 | B (≤80% and >50% EGFR protein remaining after 72 hours of incubation with the test compound at a concentration between 300 nM and 10 nM) | C (>80% EGFR protein remaining after 72 hours of incubation with the test compound at a concentration of 300 nM)
11 | Cc1ncsc1-c1ccc(CNC(=O)[C@@H]2C[C@@H](O)CN2C(=O)[C@H](C(C)C)N2Cc3ccccc3C2=O)c(OCCOCCOCCOCCOCCOCC#Cc2cccc3c2C(=O)N([C@@H](C(=O)Nc2nccs2)c2cc(F)ccc2O)C3)c1 [compound 260] |  |  | 3200 | 560 | 20000 | > 30 | C (>80% EGFR protein remaining after 72 hours of incubation with the test compound at a concentration of 300 nM) | C (>80% EGFR protein remaining after 72 hours of incubation with the test compound at a concentration of 300 nM)
